{
  "source": "patent US20100273748A1",
  "about": "“ANTIMICROBIAL THERAPY” (priority 2006, published 2010)",
  "key": {"S. aureus DmprF": {"tested_on": "S. aureus DmprF", "assay": "Antimicrobial activity of keratinocyte lysates (bacterial growth, OD600)", "assay_type": "cell-based, Staphylococcus aureus", "description": "Panel a: NHEKs were stimulated with 1,25D3 (10^−9-10^−7 M) in the presence of the HDAC inhibitor butyrate (BUT; 2 mM) for 24 hours. mRNA abundance was determined by real-time qPCR for cathelicidin and glyceraldehyde-3-phosphate dehydrogenase and normalized to vehicle-treated controls. […] Data shown are means (7SD) of the results from a single stimulation experiment performed in triplicates and are representative of at least three independent experiments (**P<0.01; ***P<0.001; two-way analysis of variance). Panel b: The HDAC inhibitor TSA (200 ng ml^−1) induces cathelicidin in the presence of 1,25D3 (10^−8M). Expression of cathelicidin is dependent on a functional VDR, as pretreatment with the VDR antagonist ZK159222 (10^−7 M) inhibits induction of cathelicidin with BUT (2 mM) in the presence of 1,25D3 (10^−8 M) after 24 hours. Expression of cathelicidin was determined by qPCR as described in Panel a. (*P<0.05; Student's t-test). Panel c: Increased transcript correlates with enhanced cathelicidin protein expression after HDAC inhibitor and 1,25D3 stimulation. NHEKs grown on chamber slides were stimulated with the vehicle, 1,25D3 (10^−8M), BUT (2 mM), or the combination for 24 hours. Cells were stained with a polyclonal anti-LL-37 antibody (followed by an FITC-coupled secondary antibody) and nuclei detected with 4,6-diamidino-2-phenylindole (Bar=30 μM). […] NHEKs were stimulated with 1,25D3 (10^−8M) in combination with the HDAC inhibitor BUT (2 mM) for 24 hours, cells harvested and cell lysates co-incubated with S. aureus DmprF, and bacterial growth monitored over time to determine antimicrobial activity. Media not containing cell lysates or containing cell lysates from unstimulated cells were used as controls."}, "CD14": {"tested_on": "CD14", "assay": "qPCR in differentiated epidermal constructs", "assay_type": "cell-based, human", "conditions": "1,25D3 100 nM", "description": "(§1) Organotypic culture. Epiderm™ human skin-like tissue constructs were obtained from MatTek (Ashland, Mass.) and cultured according to manufacturer's instructions. Skin constructs were cultured in maintenance media (EPI-100-MM, MatTek) and stimulated with Malp-2 (0.1 μg/ml) for 24 hours in the presence of 1,25D3 (100 nM). Skin constructs were cut after stimulation and transferred to Trizol® (Invitrogen, Carlsbad, Calif.) for RNA extraction or immediately frozen in Tissue-Tek® (Sakura, Torrance, Calif.) for immunostaining.\n(§2) Real-time RT-PCR (qPCR). RNA was extracted from cells, epidermal constructs or tissue using Trizol® and 1 μg RNA was reverse transcribed using iScript® (BioRad, Hercules, Calif.). Expression of cathelicidin and GAPDH was analysed by real-time RT-PCR. […] Fold induction relative to the vehicle treated control in in vitro experiments was calculated using the comparative Ct method, where ΔΔCt is ΔCt(stimulant)-ΔCt(vehicle), ΔCt is Ct(gene)-Ct(GAPDH) and Ct is the cycle at which an arbitrary detection threshold is crossed. For quantification of transcript abundance in tissue samples target gene expression was normalized to GAPDH and compared to non-treated or non-injured skin."}, "TLR2": {"tested_on": "TLR2", "assay": "qPCR in differentiated epidermal constructs", "assay_type": "cell-based, human", "conditions": "1,25D3 100 nM", "description": "as §1, §2"}, "CD14 protein": {"tested_on": "CD14 protein", "assay": "Western blot of keratinocyte extracts", "assay_type": "cell-based, human", "description": "Western Blot. […] After centrifugation, equal amounts of protein were mixed with loading buffer (0.25M Tris HCL, 10% SDS, 10% glycerol, 5% β-mercaptoethanol) and loaded onto a 10% Tris-Tricine gel (GeneMate, Kaysville, Utah). After separation, proteins were blotted onto a PVDF membrane (Millipore, Billerica, Mass.) and blocked in 5% milk (BioRad) in TBS 0.1% Tween20 for 1 h at RT. After washings in TBS 0.1% Tween20, membranes were stained with a rabbit polyclonal anti-CD14 (Abcam, Cambridge, Mass.) or an anti TLR2 antibody (eBioscience), washed again in TBS 0.1% Tween20 and reprobed with a HRP-coupled goat anti-rabbit antibody (DakoCytomation, Glostrup, Denmark). Stained protein was visualized using the Western Lightning® system (Perkin Elmer, Boston, Mass.)."}, "cathelicidin": {"tested_on": "cathelicidin", "assay": "Topical treatment of healthy volunteers' skin, cathelicidin expression", "assay_type": "in vivo, human", "conditions": "topical 1,25D3", "description": "Patients and treatments. Human skin wounds were collected following informed consent by inducing 5 mm full-thickness wounds in volunteers (n=5) under aseptic conditions with local anesthesia as described. At 24 hours after incision, 4 mm punch biopsies were taken from the site of injury and immediately fixed in formalin for immunostaining or frozen in liquid N2 for subsequent RNA isolation. Intact skin from healthy volunteers served as control (n=4). To examine the effects of topical 1,25D3, healthy skin of volunteers (n=7) was treated once topically with 1,25D3 (1.0 mM) and left under occlusion for 4 days. Vehicle treated contralateral skin served as a control. After treatment, skin biopsies were obtained from both sites, fixed in formalin 10% and embedded in paraffin for immunostaining. All treatments and sample acquisitions, including skin biopsies, were approved by the committees on investigations involving human subjects.\nImmunostaining. […] Nuclei were detected with DAPI. After subsequent washings with PBS slides, were mounted in ProLong Anti-Fade reagent (Molecular Probes, Eugene, Oreg.) and evaluated with an Olympus BX41 microscope (Olympus, Melville, N.Y.). […]\nNaOH, pH6.0). […] Sections were washed in PBS and detected with biotinylated secondary antibodies (Vector Laboratories, Burlingame, Calif.) and diaminobenzidine substrate (Sigma) per manufacturers' instructions."}},
  "data": [
    {"smiles": "C=C1/C(=C\\C=C2/CCC[C@]3(C)[C@@H]([C@H](C)CCCC(C)(C)O)CC[C@@H]23)C[C@@H](O)C[C@@H]1O", "note": "[1,25D3, 1,25(OH)2 vitamin D3]", "values": [
      {"measurement": "suppression of S. aureus growth by protein extracts of treated cells", "setting": "S. aureus DmprF; cells treated with 1,25D3 (10^−8M) and butyrate (2 mM), 24 hours", "result": "maximal ability to suppress the growth"},
      {"measurement": "antimicrobial activity of the agents themselves", "setting": "S. aureus DmprF; without cell lysate", "result": "did not show antimicrobial activity"},
      {"measurement": "CD14 transcript abundance", "setting": "CD14", "result": "show an increase"},
      {"measurement": "TLR2 transcript abundance", "setting": "TLR2", "result": "show an increase"},
      {"measurement": "CD14 protein expression (Western blot)", "setting": "CD14 protein; 1,25D3 100 nM, monolayer keratinocyte extracts", "result": "increases expression"},
      {"measurement": "CD14 protein expression (Western blot)", "setting": "CD14 protein; 1,25D3 10^−8M and butyrate 2 mM, 24 hours", "result": "increase in CD14 protein expression"},
      {"measurement": "cathelicidin expression in skin", "setting": "cathelicidin", "result": "increased expression"}
    ]}
  ]
}
